In publication PMC10349829, “Functional characterization of the transient receptor potential melastatin 2 (TRPM2) cation channel from Nematostella vectensis reconstituted into lipid bilayer” (Scientific Reports, 2023):
Like-named read-outs stand apart in the source and are kept apart here.

Molecular target: T1, nvTRPM2 (transient receptor potential melastatin 2) (Nematostella vectensis, UniProt A7T1N0)
T1 construct: gene TRPM2; purified and reconstituted into planar lipid bilayers
Assay: single-channel recording of purified channel in planar lipid bilayers (activation)
Type: biochemical

T1 sequence (A7T1N0 whole entry): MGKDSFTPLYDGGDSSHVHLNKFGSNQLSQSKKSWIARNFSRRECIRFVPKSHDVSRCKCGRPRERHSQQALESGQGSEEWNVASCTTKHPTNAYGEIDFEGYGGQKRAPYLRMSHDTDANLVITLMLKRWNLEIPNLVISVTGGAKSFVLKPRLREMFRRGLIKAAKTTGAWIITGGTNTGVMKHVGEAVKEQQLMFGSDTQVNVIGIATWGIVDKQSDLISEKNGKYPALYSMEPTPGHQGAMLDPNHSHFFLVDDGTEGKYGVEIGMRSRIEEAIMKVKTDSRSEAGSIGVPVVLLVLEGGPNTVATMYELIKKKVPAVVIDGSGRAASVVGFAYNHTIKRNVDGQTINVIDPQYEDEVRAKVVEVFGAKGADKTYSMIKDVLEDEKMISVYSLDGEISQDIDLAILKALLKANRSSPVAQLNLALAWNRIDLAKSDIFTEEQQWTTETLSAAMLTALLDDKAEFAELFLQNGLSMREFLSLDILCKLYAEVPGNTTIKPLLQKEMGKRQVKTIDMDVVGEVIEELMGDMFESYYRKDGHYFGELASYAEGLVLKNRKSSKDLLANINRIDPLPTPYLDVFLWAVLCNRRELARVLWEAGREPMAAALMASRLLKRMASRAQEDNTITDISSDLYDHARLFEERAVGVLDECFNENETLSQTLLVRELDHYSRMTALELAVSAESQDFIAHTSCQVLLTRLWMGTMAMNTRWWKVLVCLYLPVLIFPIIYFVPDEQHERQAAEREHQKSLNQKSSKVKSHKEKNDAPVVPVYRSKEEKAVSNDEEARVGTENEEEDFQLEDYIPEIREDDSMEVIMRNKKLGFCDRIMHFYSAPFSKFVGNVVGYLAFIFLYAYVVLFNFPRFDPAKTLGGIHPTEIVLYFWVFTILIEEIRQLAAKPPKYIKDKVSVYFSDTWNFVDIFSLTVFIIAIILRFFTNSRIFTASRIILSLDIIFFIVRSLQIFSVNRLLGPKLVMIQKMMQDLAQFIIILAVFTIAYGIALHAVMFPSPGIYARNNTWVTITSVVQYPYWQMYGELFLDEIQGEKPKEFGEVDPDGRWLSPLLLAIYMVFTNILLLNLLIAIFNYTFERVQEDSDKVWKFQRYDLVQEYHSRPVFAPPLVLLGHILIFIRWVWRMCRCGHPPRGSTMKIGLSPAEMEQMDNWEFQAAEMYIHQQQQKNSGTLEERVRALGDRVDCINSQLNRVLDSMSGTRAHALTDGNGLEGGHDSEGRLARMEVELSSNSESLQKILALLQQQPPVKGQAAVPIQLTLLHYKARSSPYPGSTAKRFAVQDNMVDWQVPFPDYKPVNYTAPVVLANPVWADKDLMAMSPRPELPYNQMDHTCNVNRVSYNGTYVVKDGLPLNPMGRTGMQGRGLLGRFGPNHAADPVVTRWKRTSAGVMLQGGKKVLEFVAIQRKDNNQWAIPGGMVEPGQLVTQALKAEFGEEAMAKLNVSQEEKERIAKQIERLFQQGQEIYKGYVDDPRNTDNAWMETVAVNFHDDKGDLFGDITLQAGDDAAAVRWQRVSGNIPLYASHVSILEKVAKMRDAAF

SMILES | EC50 [nM] | EC50 (read-out: EC50) [nM]
Nc1ncnc2c1ncn2[C@@H]1O[C@H](COP(=O)(O)OP(=O)(O)OC[C@H]2OC(O)[C@H](O)[C@@H]2O)[C@@H](O)[C@H]1OP(=O)(O)O (some centres unmarked) [ADPRP] | ~200 | 
Nc1ncnc2c1ncn2[C@@H]1O[C@H](COP(=O)(O)OP(=O)(O)OC[C@H]2OC(O)[C@H](O)[C@@H]2O)[C@@H](O)[C@H]1O (some centres unmarked) [ADPR] |  | ~1000
